In ChEMBL document CHEMBL4507274 (2021):

Columns and labels:
[1] = biological target: Ribosomal protein S6 kinase alpha-5 (Homo sapiens) (UniProt O75582); conditions: Compound concentration 100.0 nM
[2] = biological target: Wee1-like protein kinase (Homo sapiens) (UniProt P30291); conditions: Compound concentration 100.0 nM
[3] = biological target: Mitogen-activated protein kinase kinase kinase 4 (Homo sapiens) (UniProt Q9Y6R4); conditions: Compound concentration 100.0 nM
[4] = biological target: Serine/threonine-protein kinase TNNI3K (Homo sapiens) (UniProt Q59H18); conditions: Compound concentration 100.0 nM
[5] = test system: Receptor-type tyrosine-protein kinase FLT3 (Homo sapiens), P36888 [D835H]; conditions: Compound concentration 100.0 nM
[6] = biological target: Cyclin-G-associated kinase (Homo sapiens) (UniProt O14976); conditions: Compound concentration 100.0 nM
[7] = biological target: Death-associated protein kinase 1 (Homo sapiens) (UniProt P53355); conditions: Compound concentration 100.0 nM
[8] = biological target: Mitogen-activated protein kinase kinase kinase 9 (Homo sapiens) (UniProt P80192); conditions: Compound concentration 100.0 nM
[9] = biological target: Ephrin type-A receptor 6 (Homo sapiens) (UniProt Q9UF33); conditions: Compound concentration 100.0 nM
[10] = biological target: Sodium-dependent serotonin transporter (Homo sapiens) (UniProt P31645); conditions: Compound concentration 10.0 uM
[11] = biological target: Calcium/calmodulin-dependent protein kinase kinase 1 (Homo sapiens) (UniProt Q8N5S9); conditions: Compound concentration 100.0 nM
[12] = biological target: Mitogen-activated protein kinase kinase kinase 2 (Homo sapiens) (UniProt Q9Y2U5); conditions: Compound concentration 100.0 nM
[13] = biological target: Serine/threonine-protein kinase Sgk3 (Homo sapiens) (UniProt Q96BR1); conditions: Compound concentration 100.0 nM
[14] = biological target: Fibroblast growth factor receptor 4 (Homo sapiens) (UniProt P22455); conditions: Compound concentration 100.0 nM
[15] = test system: Tyrosine-protein kinase ABL1 (Homo sapiens), P00519 [F317L]; conditions: Compound concentration 100.0 nM
[16] = biological target: Protein-tyrosine kinase 2-beta (Homo sapiens) (UniProt Q14289); conditions: Compound concentration 100.0 nM
[17] = biological target: Inhibitor of nuclear factor kappa-B kinase subunit alpha (Homo sapiens) (UniProt O15111); conditions: Compound concentration 100.0 nM
[18] = biological target: Serine/threonine-protein kinase 33 (Homo sapiens) (UniProt Q9BYT3); conditions: Compound concentration 100.0 nM
[19] = biological target: Transient receptor potential cation channel subfamily M member 6 (Homo sapiens) (UniProt Q9BX84); conditions: Compound concentration 100.0 nM
[20] = biological target: Vascular endothelial growth factor receptor 3 (Homo sapiens) (UniProt P35916); conditions: Compound concentration 100.0 nM
[21] = biological target: Serine/threonine-protein kinase Nek4 (Homo sapiens) (UniProt P51957); conditions: Compound concentration 100.0 nM
[22] = biological target: Glycogen synthase kinase-3 beta (Homo sapiens) (UniProt P49841); conditions: Compound concentration 100.0 nM
[23] = biological target: Insulin-like growth factor 1 receptor (Homo sapiens) (UniProt P08069); conditions: Compound concentration 100.0 nM
[24] = biological target: MAP/microtubule affinity-regulating kinase 3 (Homo sapiens) (UniProt P27448); conditions: Compound concentration 100.0 nM
[25] = biological target: T1, Serine/threonine-protein kinase Sgk1 (Homo sapiens) (UniProt O00141); conditions: Compound concentration 100.0 nM
T1 sequence (whole entry): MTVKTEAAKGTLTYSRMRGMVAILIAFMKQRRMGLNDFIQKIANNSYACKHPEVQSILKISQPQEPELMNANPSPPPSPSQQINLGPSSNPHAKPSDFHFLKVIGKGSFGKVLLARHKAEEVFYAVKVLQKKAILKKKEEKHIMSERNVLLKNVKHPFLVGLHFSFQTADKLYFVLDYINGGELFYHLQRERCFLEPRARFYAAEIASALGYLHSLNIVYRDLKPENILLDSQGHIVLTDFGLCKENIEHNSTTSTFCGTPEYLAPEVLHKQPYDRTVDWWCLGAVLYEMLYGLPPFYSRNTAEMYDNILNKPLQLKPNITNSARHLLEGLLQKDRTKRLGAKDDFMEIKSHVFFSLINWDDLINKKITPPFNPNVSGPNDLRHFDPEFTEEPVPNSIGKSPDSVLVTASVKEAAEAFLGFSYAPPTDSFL

[26] = biological target: T2, Cytoplasmic tyrosine-protein kinase BMX (Homo sapiens) (UniProt P51813); conditions: Compound concentration 100.0 nM
T2 sequence (whole entry): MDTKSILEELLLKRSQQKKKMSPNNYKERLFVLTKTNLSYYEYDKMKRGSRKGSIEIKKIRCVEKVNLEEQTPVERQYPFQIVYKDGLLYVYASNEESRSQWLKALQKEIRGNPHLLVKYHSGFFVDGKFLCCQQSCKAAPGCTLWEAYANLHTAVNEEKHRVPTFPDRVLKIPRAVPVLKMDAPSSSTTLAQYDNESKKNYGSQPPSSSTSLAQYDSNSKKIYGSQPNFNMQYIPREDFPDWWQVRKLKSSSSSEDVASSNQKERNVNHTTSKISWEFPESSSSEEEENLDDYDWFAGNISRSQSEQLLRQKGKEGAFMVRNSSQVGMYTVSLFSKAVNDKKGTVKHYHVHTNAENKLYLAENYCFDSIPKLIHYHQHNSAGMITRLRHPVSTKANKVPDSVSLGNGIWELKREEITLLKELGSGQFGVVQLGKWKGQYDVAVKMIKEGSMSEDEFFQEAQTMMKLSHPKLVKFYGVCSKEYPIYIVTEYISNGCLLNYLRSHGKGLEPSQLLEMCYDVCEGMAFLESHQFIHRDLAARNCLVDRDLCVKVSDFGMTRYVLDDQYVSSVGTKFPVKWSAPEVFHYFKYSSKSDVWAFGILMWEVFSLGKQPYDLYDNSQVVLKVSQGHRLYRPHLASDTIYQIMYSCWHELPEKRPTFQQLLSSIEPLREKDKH

[27] = biological target: Ribosomal protein S6 kinase alpha-5 (Homo sapiens) (UniProt O75582); conditions: Compound concentration 100.0 nM; remark: listed apart in the source
[28] = biological target: Ephrin type-B receptor 2 (Homo sapiens) (UniProt P29323); conditions: Compound concentration 100.0 nM
[29] = biological target: Receptor-interacting serine/threonine-protein kinase 1 (Homo sapiens) (UniProt Q13546); conditions: Compound concentration 100.0 nM
[30] = biological target: 5-hydroxytryptamine receptor 6 (Homo sapiens) (UniProt P50406); conditions: Compound concentration 10.0 uM

Sequence of Ribosomal protein S6 kinase alpha-5 (Homo sapiens) (O75582 whole entry, looked up): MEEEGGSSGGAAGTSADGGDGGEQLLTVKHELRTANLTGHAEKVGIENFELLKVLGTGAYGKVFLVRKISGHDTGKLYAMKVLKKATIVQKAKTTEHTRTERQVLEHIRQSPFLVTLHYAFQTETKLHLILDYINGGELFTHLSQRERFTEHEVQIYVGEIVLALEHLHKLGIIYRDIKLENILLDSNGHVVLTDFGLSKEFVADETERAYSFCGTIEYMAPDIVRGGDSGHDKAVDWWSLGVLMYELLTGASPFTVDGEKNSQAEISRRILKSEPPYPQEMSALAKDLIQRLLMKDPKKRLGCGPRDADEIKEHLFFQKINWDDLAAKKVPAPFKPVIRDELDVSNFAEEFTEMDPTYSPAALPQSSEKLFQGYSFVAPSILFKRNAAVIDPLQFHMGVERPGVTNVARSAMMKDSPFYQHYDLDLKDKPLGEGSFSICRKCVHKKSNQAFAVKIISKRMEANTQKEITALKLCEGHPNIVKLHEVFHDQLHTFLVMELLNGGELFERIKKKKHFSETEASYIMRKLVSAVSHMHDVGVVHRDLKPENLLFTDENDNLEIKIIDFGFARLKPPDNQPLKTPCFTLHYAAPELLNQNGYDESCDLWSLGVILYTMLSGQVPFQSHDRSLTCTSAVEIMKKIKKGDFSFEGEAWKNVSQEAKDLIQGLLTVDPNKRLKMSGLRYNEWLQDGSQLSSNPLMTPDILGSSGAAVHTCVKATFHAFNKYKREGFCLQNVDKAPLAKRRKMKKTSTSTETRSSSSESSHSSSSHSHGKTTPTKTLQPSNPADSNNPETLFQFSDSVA
Sequence of Serine/threonine-protein kinase Nek4 (Homo sapiens) (P51957 whole entry, looked up): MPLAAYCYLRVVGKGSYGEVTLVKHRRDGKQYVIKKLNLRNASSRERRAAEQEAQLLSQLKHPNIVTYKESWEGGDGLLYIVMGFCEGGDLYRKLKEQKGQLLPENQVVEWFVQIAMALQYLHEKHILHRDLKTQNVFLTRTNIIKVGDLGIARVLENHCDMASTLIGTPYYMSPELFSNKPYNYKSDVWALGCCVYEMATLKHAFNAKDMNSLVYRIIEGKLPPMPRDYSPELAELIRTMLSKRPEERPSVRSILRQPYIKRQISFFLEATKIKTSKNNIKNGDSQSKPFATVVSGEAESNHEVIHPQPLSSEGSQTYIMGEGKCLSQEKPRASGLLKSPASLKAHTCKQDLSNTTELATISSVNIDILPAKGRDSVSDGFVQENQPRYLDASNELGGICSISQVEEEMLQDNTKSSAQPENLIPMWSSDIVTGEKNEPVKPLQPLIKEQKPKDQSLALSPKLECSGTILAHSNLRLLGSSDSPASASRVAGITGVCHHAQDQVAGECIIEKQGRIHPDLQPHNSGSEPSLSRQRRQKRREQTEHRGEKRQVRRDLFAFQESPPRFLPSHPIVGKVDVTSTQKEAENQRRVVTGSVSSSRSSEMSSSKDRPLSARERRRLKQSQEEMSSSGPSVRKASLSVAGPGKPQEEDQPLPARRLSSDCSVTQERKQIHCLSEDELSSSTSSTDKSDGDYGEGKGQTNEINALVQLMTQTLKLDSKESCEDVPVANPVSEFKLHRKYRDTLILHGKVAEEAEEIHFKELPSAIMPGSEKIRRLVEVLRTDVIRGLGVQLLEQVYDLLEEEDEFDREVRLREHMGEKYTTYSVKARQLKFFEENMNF
Sequence of Mitogen-activated protein kinase kinase kinase 4 (Homo sapiens) (Q9Y6R4 whole entry): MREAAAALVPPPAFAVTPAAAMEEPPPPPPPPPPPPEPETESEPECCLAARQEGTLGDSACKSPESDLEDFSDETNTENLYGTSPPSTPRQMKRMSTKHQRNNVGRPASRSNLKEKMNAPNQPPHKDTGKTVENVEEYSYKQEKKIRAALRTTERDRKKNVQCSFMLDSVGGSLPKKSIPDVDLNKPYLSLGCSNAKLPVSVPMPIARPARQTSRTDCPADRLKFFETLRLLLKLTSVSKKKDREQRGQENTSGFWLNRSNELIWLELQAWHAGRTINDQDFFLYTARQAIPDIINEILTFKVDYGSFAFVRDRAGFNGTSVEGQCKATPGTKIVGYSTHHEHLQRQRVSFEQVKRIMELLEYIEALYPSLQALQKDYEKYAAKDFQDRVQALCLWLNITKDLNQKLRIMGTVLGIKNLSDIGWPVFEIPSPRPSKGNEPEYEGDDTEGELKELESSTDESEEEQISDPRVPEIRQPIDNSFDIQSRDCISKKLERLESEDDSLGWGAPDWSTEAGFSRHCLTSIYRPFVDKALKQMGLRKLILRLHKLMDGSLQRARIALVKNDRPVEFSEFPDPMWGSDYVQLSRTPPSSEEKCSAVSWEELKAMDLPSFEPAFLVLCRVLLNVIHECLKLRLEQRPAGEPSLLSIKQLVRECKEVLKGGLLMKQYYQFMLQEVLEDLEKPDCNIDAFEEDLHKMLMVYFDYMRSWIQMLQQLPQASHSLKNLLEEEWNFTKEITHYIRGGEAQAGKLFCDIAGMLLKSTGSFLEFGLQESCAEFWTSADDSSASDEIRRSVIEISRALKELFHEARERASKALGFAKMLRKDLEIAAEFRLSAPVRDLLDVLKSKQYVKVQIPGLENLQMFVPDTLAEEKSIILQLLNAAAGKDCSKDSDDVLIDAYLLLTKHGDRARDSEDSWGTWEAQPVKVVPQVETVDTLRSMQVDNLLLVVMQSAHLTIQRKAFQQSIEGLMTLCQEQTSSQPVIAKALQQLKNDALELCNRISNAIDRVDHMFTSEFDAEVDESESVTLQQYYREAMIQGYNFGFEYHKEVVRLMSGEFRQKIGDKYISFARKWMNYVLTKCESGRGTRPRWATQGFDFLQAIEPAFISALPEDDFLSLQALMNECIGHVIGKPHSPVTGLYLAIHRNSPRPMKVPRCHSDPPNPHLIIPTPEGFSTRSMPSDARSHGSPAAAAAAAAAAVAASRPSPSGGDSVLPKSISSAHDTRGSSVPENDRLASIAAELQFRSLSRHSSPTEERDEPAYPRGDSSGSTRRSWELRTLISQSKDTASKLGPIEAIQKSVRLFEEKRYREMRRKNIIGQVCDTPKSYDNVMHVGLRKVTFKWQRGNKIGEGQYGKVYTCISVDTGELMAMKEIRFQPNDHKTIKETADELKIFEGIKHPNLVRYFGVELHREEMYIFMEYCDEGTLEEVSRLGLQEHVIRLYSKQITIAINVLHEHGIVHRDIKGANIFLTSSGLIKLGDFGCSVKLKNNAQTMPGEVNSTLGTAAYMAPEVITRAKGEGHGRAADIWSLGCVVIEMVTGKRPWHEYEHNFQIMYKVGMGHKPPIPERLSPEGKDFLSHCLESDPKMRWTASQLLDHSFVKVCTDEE
Sequence of Tyrosine-protein kinase ABL1 (Homo sapiens), P00519 [F317L] (P00519 whole entry F317L): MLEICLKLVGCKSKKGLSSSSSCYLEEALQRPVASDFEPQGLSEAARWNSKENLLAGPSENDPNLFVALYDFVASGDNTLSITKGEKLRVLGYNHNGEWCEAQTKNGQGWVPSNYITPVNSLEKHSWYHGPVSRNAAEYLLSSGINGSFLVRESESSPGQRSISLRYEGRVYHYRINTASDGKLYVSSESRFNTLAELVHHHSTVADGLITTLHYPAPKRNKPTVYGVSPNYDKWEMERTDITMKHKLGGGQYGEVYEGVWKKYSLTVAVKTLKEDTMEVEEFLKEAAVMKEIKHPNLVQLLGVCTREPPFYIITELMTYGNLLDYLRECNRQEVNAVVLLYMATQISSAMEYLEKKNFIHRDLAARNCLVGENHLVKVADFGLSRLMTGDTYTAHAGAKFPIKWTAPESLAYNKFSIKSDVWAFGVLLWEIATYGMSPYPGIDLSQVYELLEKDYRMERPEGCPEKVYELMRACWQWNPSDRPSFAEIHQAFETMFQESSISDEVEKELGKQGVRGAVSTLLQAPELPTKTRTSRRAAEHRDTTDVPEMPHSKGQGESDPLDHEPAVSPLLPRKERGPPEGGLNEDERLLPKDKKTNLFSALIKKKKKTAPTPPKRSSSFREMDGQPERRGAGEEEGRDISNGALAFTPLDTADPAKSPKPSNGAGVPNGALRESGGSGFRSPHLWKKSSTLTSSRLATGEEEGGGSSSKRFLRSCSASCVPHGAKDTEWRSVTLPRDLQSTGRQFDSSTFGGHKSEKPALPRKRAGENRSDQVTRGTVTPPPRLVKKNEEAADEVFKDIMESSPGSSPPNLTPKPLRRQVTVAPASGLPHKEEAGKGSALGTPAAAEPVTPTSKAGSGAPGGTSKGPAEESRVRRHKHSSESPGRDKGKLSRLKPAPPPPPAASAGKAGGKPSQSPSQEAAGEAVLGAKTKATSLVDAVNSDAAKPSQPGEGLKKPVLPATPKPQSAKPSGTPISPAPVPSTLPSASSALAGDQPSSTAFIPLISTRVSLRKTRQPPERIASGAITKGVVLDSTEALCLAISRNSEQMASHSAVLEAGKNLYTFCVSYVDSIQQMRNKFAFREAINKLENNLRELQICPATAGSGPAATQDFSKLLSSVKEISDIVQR
Sequence of Inhibitor of nuclear factor kappa-B kinase subunit alpha (Homo sapiens) (O15111 whole entry): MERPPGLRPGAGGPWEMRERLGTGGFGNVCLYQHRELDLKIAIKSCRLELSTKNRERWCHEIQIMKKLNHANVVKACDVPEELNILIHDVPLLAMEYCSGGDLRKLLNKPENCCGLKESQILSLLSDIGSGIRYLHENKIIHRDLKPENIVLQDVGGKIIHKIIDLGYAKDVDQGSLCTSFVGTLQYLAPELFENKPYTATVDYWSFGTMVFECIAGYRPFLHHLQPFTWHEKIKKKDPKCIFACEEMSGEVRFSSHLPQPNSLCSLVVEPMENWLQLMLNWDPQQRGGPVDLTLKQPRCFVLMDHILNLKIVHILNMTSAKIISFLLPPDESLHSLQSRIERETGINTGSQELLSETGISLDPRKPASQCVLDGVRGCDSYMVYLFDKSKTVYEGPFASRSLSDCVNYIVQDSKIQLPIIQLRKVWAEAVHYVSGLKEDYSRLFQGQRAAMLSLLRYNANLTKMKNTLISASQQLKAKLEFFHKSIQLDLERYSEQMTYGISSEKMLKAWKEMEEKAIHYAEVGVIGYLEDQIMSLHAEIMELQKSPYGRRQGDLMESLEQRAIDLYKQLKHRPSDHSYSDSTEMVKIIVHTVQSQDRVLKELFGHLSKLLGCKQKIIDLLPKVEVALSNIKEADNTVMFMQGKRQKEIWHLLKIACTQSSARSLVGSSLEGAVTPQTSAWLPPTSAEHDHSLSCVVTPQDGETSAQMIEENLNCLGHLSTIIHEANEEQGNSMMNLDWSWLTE

Cn1cc(Cl)c2c(Oc3c(F)cc(Nc4cc(Cl)nc(N)n4)cc3F)ccnc21 [BAY-4900]
inactive: residual activity [1] 100% | residual activity [2] 91% | residual activity [3] 100% | residual activity [4] 78% | residual activity [5] 78% | residual activity [6] 100% | residual activity [7] 100% | residual activity [8] 96% | residual activity [9] 100% | inhibition [10] -5.34% | residual activity [11] 100% | residual activity [12] 79% | residual activity [13] 90% | residual activity [14] 86% | residual activity [15] 94% | residual activity [16] 100% | residual activity [17] 85% | residual activity [18] 100% | residual activity [19] 77% | residual activity [20] 96% | residual activity [21] 84% | residual activity [22] 90% | residual activity [23] 97% | residual activity [24] 83% | residual activity [25] 80% | residual activity [26] 97% | residual activity [27] 100% | residual activity [28] 100% | residual activity [29] 100% | inhibition [30] -1.64%

Cc1c[nH]c2nccc(Oc3c(F)cc(Nc4cc(Cl)nc(N)n4)cc3F)c12 [BAY-549]
inactive: residual activity [1] 100% | residual activity [2] 100% | residual activity [3] 100% | residual activity [4] 98% | residual activity [5] 100% | residual activity [6] 100% | residual activity [7] 98% | residual activity [8] 89% | residual activity [9] 100% | inhibition [10] 2.1% | residual activity [11] 99% | residual activity [12] 89% | residual activity [13] 88% | residual activity [14] 100% | residual activity [15] 84% | residual activity [16] 90% | residual activity [17] 66% | residual activity [18] 85% | residual activity [19] 83% | residual activity [20] 98% | residual activity [21] 90% | residual activity [22] 98% | residual activity [23] 86% | residual activity [24] 74% | residual activity [25] 74% | residual activity [26] 100% | residual activity [27] 93% | residual activity [28] 99% | residual activity [29] 100% | inhibition [30] -1.5%
